Source: patent US10758534B2 (Vertex Pharmaceuticals Incorporated, priority 2014, dated 2020)

molecular target: T1, F508del (Homo sapiens, UniProt P13569, DEL508-508); experiment: Protocol 2: FRET membrane potential optical assay (VIPR), identification of correction compounds; type: cell-based; settings: Table 3; compounds of Table 1 as modulators of CFTR activity; protocol not stated
T1 construct: expressed in transfected cells
Method in brief: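 Correction of the F508del trafficking defect is scored as forskolin (10 μM)/genistein (20 μM)-stimulated Cl^− efflux in NIH3T3 mouse fibroblasts after a 16 hr, 37° C. compound exposure. Depolarization was followed optically using voltage-sensing FRET dyes.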

T1 sequence (P13569 with tags, fused parts or gaps DEL508-508): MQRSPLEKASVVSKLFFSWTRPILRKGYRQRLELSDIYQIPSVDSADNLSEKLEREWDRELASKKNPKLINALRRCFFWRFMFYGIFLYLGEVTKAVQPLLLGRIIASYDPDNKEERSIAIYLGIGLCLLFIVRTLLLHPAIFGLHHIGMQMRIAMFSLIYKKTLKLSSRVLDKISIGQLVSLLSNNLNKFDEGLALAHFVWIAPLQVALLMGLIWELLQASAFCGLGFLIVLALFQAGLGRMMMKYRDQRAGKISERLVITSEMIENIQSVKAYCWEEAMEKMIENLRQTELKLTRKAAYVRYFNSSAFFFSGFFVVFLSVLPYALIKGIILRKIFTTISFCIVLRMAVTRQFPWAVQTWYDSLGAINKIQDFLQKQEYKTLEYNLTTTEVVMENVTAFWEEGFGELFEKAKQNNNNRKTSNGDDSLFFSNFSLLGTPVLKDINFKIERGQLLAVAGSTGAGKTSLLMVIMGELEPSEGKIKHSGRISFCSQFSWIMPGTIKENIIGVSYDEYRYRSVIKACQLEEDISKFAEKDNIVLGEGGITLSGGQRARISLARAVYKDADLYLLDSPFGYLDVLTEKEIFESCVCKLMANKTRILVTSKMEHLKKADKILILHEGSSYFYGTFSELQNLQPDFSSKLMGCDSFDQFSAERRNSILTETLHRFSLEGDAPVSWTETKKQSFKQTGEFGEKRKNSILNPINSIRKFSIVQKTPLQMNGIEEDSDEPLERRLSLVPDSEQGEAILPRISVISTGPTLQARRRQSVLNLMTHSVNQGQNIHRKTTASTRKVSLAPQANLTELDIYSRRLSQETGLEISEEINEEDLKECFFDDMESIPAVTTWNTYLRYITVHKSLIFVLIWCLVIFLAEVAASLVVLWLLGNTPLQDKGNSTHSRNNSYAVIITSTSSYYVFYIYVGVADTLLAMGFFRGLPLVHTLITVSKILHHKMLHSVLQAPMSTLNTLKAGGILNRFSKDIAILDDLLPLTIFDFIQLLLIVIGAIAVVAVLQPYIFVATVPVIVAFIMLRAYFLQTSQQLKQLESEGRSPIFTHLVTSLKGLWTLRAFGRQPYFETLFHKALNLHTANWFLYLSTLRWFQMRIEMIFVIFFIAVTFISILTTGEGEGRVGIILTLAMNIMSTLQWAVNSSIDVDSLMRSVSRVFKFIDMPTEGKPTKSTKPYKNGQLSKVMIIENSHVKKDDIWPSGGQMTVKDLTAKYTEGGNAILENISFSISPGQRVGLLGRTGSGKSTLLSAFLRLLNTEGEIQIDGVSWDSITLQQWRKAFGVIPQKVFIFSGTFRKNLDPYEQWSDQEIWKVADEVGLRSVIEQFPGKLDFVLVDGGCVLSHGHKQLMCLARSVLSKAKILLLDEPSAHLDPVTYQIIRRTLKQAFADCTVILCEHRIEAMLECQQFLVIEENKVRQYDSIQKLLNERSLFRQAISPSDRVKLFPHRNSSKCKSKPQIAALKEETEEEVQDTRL

Row | EC30 | Structure (SMILES)
1 | ++ (“++” means between 3 uM and 10 uM) | Cc1cc(C)c(Oc2nc(-c3ccc(C(=O)NC(C)C)c(F)c3)ccc2C(=O)NS(=O)(=O)c2cccc(N)n2)c(C)c1 [Compound 543, N-[(6-amino-2-pyridyl)sulfonyl]-6-[3-fluoro-4-(isopropylcarbamoyl)phenyl]-2-(2,4,6-trimethylphenoxy)pyridine-3-carboxamide]
2 | ++ (“++” means between 3 uM and 10 uM) | Cc1cc(C)c(Oc2nc(-c3cc(F)ccc3F)ccc2C(=O)NS(=O)(=O)c2ccc[nH]c2=O)c(C)c1 [Compound 545, 6-(2,5-difluorophenyl)-N-[(2-oxo-1H-pyridin-3-yl)sulfonyl]-2-(2,4,6-trimethylphenoxy)pyridine-3-carboxamide]
3 | ++ (“++” means between 3 uM and 10 uM) | Cc1cc(C)c(Oc2nc(-c3ccc(F)c(F)c3)ccc2C(=O)NS(=O)(=O)c2ccc[nH]c2=O)c(C)c1 [Compound 546, 6-(3,4-difluorophenyl)-N-[(2-oxo-1H-pyridin-3-yl)sulfonyl]-2-(2,4,6-trimethylphenoxy)pyridine-3-carboxamide]
4 | +++ (“+++” means <3 uM) | Cc1cc(C)c(Oc2nc(-c3ccc(C(F)(F)F)cc3)ccc2C(=O)NS(=O)(=O)c2cccc(N)n2)c(C)c1 [Compound 548, N-[(6-amino-2-pyridyl)sulfonyl]-6-[4-(trifluoromethyl)phenyl]-2-(2,4,6-trimethylphenoxy)pyridine-3-carboxamide]
5 | ++ (“++” means between 3 uM and 10 uM) | COc1ccc(-c2nc(C(C)(C)C)ccc2C(=O)NS(=O)(=O)c2cccc(N)c2)cc1 [Compound 550, N-(3-aminophenyl)sulfonyl-6-tert-butyl-2-(4-methoxyphenyl)pyridine-3-carboxamide]
6 | +++ (“+++” means <3 uM) | CCOc1cc(F)cc(-c2ccc(C(=O)NS(=O)(=O)c3cccc(N)n3)c(N3[C@H](C)CC[C@@H]3C)n2)c1 [Compound 551, N-[(6-amino-2-pyridyl)sulfonyl]-2-[(2R,5S)-2,5-dimethylpyrrolidin-1-yl]-6-(3-ethoxy-5-fluoro-phenyl)pyridine-3-carboxamide]
7 | ++ (“++” means between 3 uM and 10 uM) | CCCOc1ccc(F)c(-c2ccc(C(=O)NS(=O)(=O)c3ccc[nH]c3=O)c(Oc3c(C)cc(C)cc3C)n2)c1 [Compound 552, 6-(2-fluoro-5-propoxy-phenyl)-N-[(2-oxo-1H-pyridin-3-yl)sulfonyl]-2-(2,4,6-trimethylphenoxy)pyridine-3-carboxamide]
8 | +++ (“+++” means <3 uM) | Cc1cc(C)c(CN2Cc3c(-c4ccccc4)cccc3C2C(=O)NS(=O)(=O)c2cccc(N)n2)c(C)c1 (centres unmarked) [Compound 554, N-[(6-amino-2-pyridyl)sulfonyl]-4-phenyl-2-[(2,4,6-trimethylphenyl)methyl]isoindoline-1-carboxamide]
9 | +++ (“+++” means <3 uM) | CC(C)Oc1ccc(-c2ccc(C(=O)NS(=O)(=O)c3cccc(N)n3)c(N3CC[C@H](C)C3(C)C)n2)cn1 [Compound 557, N-[(6-amino-2-pyridyl)sulfonyl]-6-(6-isopropoxy-3-pyridyl)-2-[(3S)-2,2,3-trimethylpyrrolidin-1-yl]pyridine-3-carboxamide]
10 | +++ (“+++” means <3 uM) | CC(C)Oc1ccc(-c2ccc(C(=O)NS(=O)(=O)c3cccc(N)n3)c(N3CCCC(c4ccc(F)c(F)c4)C3)n2)cn1 (centres unmarked) [Compound 558, N-[(6-amino-2-pyridyl)sulfonyl]-2-[3-(3,4-difluorophenyl)-1-piperidyl]-6-(6-isopropoxy-3-pyridyl)pyridine-3-carboxamide]
11 | +++ (“+++” means <3 uM) | Cc1ccc(Oc2nc(-c3cc(F)cc(OC(C)C)c3)ccc2C(=O)NS(=O)(=O)c2nccnc2N)c(C)c1 [Compound 559, N-(3-aminopyrazin-2-yl)sulfonyl-2-(2,4-dimethylphenoxy)-6-(3-fluoro-5-isopropoxy-phenyl)pyridine-3-carboxamide]
12 | +++ (“+++” means <3 uM) | Cc1cc(C)c(Oc2nc(-c3ccc(F)cc3)ccc2C(=O)NS(=O)(=O)c2ccc[nH]c2=O)c(C)c1 [Compound 561, 6-(4-fluorophenyl)-N-[(2-oxo-1H-pyridin-3-yl)sulfonyl]-2-(2,4,6-trimethylphenoxy)pyridine-3-carboxamide]
13 | ++ (“++” means between 3 uM and 10 uM) | Cc1cc(C)c(Oc2nc(-n3cccn3)ccc2C(=O)NS(=O)(=O)c2cccc(N)n2)c(C)c1 [Compound 564, N-[(6-amino-2-pyridyl)sulfonyl]-6-pyrazol-1-yl-2-(2,4,6-trimethylphenoxy)pyridine-3-carboxamide]
14 | + (“+” means greater than 10 uM) | Cc1cc(C)c(Cn2nc(C(C)C)cc2C(=O)NS(=O)(=O)c2cccc(N)c2)c(C)c1 [Compound 566, N-(3-aminophenyl)sulfonyl-5-isopropyl-2-[(2,4,6-trimethylphenyl)methyl]pyrazole-3-carboxamide]
15 | ++ (“++” means between 3 uM and 10 uM) | CC(C)Oc1ccc(-c2ccc(C(=O)NS(=O)(=O)c3cccc(N)n3)c(N3CCCCC3)n2)cn1 [Compound 567, N-[(6-amino-2-pyridyl)sulfonyl]-6-(6-isopropoxy-3-pyridyl)-2-(1-piperidyl)pyridine-3-carboxamide]
16 | +++ (“+++” means <3 uM) | CN=S(=O)(NC(=O)c1ccc(C(C)(C)C)nc1Oc1c(C)cc(C)cc1C)c1cccc(N)c1 (stereo not drawn) [Compound 568, N—[S-(3-aminophenyl)-N-methyl-sulfonimidoyl]-6-tert-butyl-2-(2,4,6-trimethylphenoxy)pyridine-3-carboxamide]
17 | +++ (“+++” means <3 uM) | CC(C)CNc1ccc(-c2ccc(C(=O)NS(=O)(=O)c3cccc(N)n3)c(N3CC(C)CC3(C)C)n2)cn1 (centres unmarked) [Compound 569, N-[(6-amino-2-pyridyl)sulfonyl]-6-[16-(isobutylamino)-3-pyridyl]-2-(2,2,4-trimethylpyrrolidin-1-yl)pyridine-3-carboxamide]
18 | +++ (“+++” means <3 uM) | Cc1cc(C)c(Oc2nc(-c3cccc(F)c3)ccc2C(=O)NS(=O)(=O)c2cccc(N)n2)c(C)c1 [Compound 570, N-[(6-amino-2-pyridyl)sulfonyl]-6-(3-fluorophenyl)-2-(2,4,6-trimethylphenoxy)pyridine-3-carboxamide]
19 | ++ (“++” means between 3 uM and 10 uM) | CC(C)(C)c1ccc(C(=O)NS(=O)(=O)c2cccc(N)n2)c(N2CCCCC2)n1 [Compound 571, N-[(6-amino-2-pyridyl)sulfonyl]-6-tert-butyl-2-(1-piperidyl)pyridine-3-carboxamide]

Row | Structure (SMILES) | EC30
20 | CC(C)COc1ccc(-c2ccc(C(=O)NS(=O)(=O)c3cccc(N)n3)c(N3[C@H](C)CC[C@@H]3C)n2)cn1 [Compound 544, N-[(6-amino-2-pyridyl)sulfonyl]-2-[(2S,5R)-2,5-dimethylpyrrolidin-1-yl]-6-(6-isobutoxy-3-pyridyl)pyridine-3-carboxamide] | +++ (“+++” means <3 uM)
21 | CC(C)COc1cc(F)cc(-c2ccc(C(=O)NS(=O)(=O)c3cccc(N)n3)c(N3CC[C@H](C)C3(C)C)n2)c1 [Compound 547, N-[(6-amino-2-pyridyl)sulfonyl]-6-(3-fluoro-5-isobutoxy-phenyl)-2-[(3S)-2,2,3-trimethylpyrrolidin-1-yl]pyridine-3-carboxamide] | +++ (“+++” means <3 uM)
22 | CC(C)COc1cc(F)cc(-c2ccc(C(=O)NS(=O)(=O)c3cccc4[nH]ccc34)c(N3CC(C)CC3(C)C)n2)c1 (centres unmarked) [Compound 549, 6-(3-fluoro-5-isobutoxy-phenyl)-N-(1H-indol-4-ylsulfonyl)-2-(2,2,4-trimethylpyrrolidin-1-yl)pyridine-3-carboxamide] | +++ (“+++” means <3 uM)
23 | CC(C)COc1cc(F)cc(-c2ccc(C(=O)NS(=O)(=O)c3ccn[nH]3)c(N3CCC(C(C)C)CC3)n2)c1 [Compound 553, 6-(3-fluoro-5-isobutoxy-phenyl)-2-(4-isopropyl-1-piperidyl)-N-(1H-pyrazol-5-ylsulfonyl)pyridine-3-carboxamide] | +++ (“+++” means <3 uM)
24 | CC(C)COc1cc(F)cc(-c2ccc(C(=O)NS(=O)(=O)c3cccc(N)n3)c(N3CC(C)CC3(C)C)n2)c1 (centres unmarked) [Compound 555, N-[(6-amino-2-pyridyl)sulfonyl]-6-(3-fluoro-5-isobutoxy-phenyl)-2-(2,2,4-trimethylpyrrolidin-1-yl)pyridine-3-carboxamide] | +++ (“+++” means <3 uM)
25 | CC(C)COc1cc(F)cc(-c2ccc(C(=O)NS(=O)(=O)c3ccn[nH]3)c(N3CCC(CC#N)CC3)n2)c1 [Compound 556, 2-[4-(cyanomethyl)-1-piperidyl]-6-(3-fluoro-5-isobutoxy-phenyl)-N-(1H-pyrazol-5-ylsulfonyl)pyridine-3-carboxamide] | + (“+” means greater than 10 uM)
26 | CC(C)COc1cc(F)cc(-c2ccc(C(=O)NS(=O)(=O)c3cccc(N)n3)c(N3CC(C)CC(C)(C)C3)n2)c1 (centres unmarked) [Compound 560, N-[(6-amino-2-pyridyl)sulfonyl]-6-(3-fluoro-5-isobutoxy-phenyl)-2-(3,3,5-trimethyl-1-piperidyl)pyridine-3-carboxamide] | +++ (“+++” means <3 uM)
27 | CC(C)COc1cc(F)cc(-c2ccc(C(=O)NS(=O)(=O)c3cccc(N)n3)c(OC(C)c3cccc(F)c3)n2)c1 (centres unmarked) [Compound 562, N-[(6-amino-2-pyridyl)sulfonyl]-6-(3-fluoro-5-isobutoxy-phenyl)-2-[1-(3-fluorophenyl)ethoxy]pyridine-3-carboxamide] | +++ (“+++” means <3 uM)
28 | CC(C)COc1ccc(-c2ccc(C(=O)NS(=O)(=O)c3cccc(N)n3)c(N3[C@H](C)CC[C@@H]3C)n2)cc1 [Compound 563, N-[(6-amino-2-pyridyl)sulfonyl]-2-[(2S,5R)-2,5-dimethylpyrrolidin-1-yl]-6-(4-isobutoxyphenyl)pyridine-3-carboxamide] | +++ (“+++” means <3 uM)
29 | CC(C)COc1cc(F)cc(-c2ccc(C(=O)NS(=O)(=O)c3ccn[nH]3)c(N3CCC(F)(F)C3)n2)c1 [Compound 565, 2-(3,3-difluoropyrrolidin-1-yl)-6-(3-fluoro-5-isobutoxy-phenyl)-N-(1H-pyrazol-5-ylsulfonyl)pyridine-3-carboxamide] | + (“+” means greater than 10 uM)
